Common to all, as to type: cell-based
Common to all, as to settings: compounds at 50 nM and 500 nM

One assay deals with T1, CK1α (Homo sapiens, UniProt P48729+Q96SW2).
T1 construct: The supernatant was aspirated as the extracted total cell protein; endogenous in cells; host or cells: human peripheral blood mononuclear cells (hPBMCs)
Put plainly: Western blot degradation of CK1α in hPBMCs (24 h). The method, boiled down: (§1)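 Read-out is Western blot band grayscale, divided by internal control band and normalised to give percent target protein remaining; degradation rate is 1 minus that value. Cells were human PBMCs exposed to compound at 50 nM and 500 nM for 24 hours.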
(Immunoblotting shows a protein as a band on a membrane.)

The target of a further assay is T2, IKZF2 (Homo sapiens, UniProt Q96SW2+Q9UKS7).
T2 construct: The supernatant was aspirated as the extracted total cell protein; endogenous in cells; host or cells: human peripheral blood mononuclear cells (hPBMCs)
T2 sequence (Q9UKS7 whole entry): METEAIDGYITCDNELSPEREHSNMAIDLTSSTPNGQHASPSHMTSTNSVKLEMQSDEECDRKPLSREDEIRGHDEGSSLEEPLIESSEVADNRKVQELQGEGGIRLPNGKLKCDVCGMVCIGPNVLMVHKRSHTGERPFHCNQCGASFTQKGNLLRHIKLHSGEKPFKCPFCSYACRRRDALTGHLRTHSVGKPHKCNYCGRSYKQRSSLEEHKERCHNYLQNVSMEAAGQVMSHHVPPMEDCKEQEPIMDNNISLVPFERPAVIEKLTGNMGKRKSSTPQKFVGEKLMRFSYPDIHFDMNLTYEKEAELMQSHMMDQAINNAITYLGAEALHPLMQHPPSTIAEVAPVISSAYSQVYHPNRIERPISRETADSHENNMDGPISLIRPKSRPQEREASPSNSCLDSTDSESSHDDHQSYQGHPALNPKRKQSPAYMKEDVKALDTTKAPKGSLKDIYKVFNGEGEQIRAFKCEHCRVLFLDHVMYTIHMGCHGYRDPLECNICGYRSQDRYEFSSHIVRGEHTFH
T2 sequence (Q96SW2 whole entry): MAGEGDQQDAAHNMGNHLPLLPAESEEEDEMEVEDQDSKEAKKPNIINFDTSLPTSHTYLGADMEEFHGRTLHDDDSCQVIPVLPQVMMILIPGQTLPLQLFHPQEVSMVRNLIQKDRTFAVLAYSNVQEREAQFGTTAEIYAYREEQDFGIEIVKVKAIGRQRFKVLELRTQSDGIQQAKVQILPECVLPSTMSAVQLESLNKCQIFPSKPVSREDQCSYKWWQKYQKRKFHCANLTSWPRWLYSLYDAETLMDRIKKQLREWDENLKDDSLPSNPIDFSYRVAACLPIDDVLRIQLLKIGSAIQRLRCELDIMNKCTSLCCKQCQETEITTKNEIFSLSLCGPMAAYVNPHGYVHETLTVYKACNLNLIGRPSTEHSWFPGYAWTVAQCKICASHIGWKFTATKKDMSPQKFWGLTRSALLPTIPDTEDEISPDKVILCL
T2 sequence (Q16531 whole entry partner): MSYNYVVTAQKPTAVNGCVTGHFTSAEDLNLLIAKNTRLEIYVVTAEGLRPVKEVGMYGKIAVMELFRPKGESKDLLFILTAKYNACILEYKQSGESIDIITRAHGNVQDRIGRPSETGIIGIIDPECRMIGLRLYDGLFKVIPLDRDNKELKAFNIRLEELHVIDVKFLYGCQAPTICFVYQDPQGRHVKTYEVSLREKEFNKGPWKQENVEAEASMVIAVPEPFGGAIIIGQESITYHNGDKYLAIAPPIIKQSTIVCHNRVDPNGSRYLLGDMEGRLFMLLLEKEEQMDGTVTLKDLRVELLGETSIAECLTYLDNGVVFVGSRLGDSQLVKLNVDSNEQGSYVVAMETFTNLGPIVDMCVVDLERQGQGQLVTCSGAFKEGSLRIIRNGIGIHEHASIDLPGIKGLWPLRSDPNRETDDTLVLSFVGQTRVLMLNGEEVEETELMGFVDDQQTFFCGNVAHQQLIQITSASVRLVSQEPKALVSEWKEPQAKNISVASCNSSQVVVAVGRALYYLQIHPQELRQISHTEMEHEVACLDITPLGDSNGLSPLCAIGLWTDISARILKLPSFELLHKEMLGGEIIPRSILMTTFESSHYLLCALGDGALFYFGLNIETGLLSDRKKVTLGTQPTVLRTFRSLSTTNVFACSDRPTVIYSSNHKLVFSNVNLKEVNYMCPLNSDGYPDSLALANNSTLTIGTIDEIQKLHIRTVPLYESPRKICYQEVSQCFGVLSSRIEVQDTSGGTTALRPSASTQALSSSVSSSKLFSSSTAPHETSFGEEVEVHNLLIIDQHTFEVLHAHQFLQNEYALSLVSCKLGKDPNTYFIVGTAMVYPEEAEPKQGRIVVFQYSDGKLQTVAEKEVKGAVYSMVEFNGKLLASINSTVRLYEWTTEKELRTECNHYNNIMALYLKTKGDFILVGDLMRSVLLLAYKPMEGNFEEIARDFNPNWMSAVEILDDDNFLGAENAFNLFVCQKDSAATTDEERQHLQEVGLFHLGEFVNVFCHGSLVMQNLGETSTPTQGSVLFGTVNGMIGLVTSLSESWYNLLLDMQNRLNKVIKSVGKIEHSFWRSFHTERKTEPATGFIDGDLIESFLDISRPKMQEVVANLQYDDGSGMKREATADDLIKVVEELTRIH
Put plainly: Western blot degradation of IKZF2 in hPBMCs (24 h). The method in brief: as §1

Another assay addresses T3, IKZF1 (Homo sapiens, UniProt Q13422+Q96SW2).
T3 construct: The supernatant was aspirated as the extracted total cell protein; endogenous in cells; host or cells: human peripheral blood mononuclear cells (hPBMCs)
Put plainly: Western blot degradation of IKZF1 in hPBMCs (24 h). The method, boiled down: as §1

The next assay has as its target T4, WEE1 (Homo sapiens, UniProt P30291+Q96SW2).
T4 construct: The supernatant was aspirated as the extracted total cell protein; endogenous in cells; host or cells: human peripheral blood mononuclear cells (hPBMCs)
Put plainly: Western blot degradation of WEE1 in hPBMCs (24 h). The method in brief:
as §1

The target in another assay is T5, GSPT1 (Homo sapiens, UniProt P15170+Q96SW2).
T5 construct: The supernatant was aspirated as the extracted total cell protein; endogenous in cells; host or cells: human peripheral blood mononuclear cells (hPBMCs)
T5 sequence (P15170 whole entry): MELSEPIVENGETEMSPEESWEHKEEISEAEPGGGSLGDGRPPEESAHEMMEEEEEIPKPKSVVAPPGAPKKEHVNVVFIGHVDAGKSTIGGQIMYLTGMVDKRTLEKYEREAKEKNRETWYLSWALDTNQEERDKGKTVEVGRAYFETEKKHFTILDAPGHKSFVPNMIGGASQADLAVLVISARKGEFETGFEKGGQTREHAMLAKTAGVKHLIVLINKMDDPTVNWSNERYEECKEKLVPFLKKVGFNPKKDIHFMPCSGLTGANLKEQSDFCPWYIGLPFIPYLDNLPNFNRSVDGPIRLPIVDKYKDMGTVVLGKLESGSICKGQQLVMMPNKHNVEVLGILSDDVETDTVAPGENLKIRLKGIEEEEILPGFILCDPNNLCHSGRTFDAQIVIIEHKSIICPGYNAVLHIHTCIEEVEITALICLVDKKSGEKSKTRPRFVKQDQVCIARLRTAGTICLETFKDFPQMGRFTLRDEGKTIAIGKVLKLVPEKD
T5 sequence (Q96SW2 whole entry): as the sequence (Q96SW2 whole entry) above
T5 sequence (Q16531 whole entry partner): as the sequence (Q16531 whole entry partner) above
The experiment in a line: Western blot degradation of GSPT1 in hPBMCs (24 h). The method, boiled down:
as §1

The next assay concerns the target T6, IKZF3 (Homo sapiens, UniProt Q96SW2+Q9UKT9).
T6 construct: The supernatant was aspirated as the extracted total cell protein; endogenous in cells; host or cells: human peripheral blood mononuclear cells (hPBMCs)
The experiment in a line: Western blot degradation of IKZF3 in hPBMCs (24 h). The method in brief:
as §1

T6 sequence (Q9UKT9 whole entry): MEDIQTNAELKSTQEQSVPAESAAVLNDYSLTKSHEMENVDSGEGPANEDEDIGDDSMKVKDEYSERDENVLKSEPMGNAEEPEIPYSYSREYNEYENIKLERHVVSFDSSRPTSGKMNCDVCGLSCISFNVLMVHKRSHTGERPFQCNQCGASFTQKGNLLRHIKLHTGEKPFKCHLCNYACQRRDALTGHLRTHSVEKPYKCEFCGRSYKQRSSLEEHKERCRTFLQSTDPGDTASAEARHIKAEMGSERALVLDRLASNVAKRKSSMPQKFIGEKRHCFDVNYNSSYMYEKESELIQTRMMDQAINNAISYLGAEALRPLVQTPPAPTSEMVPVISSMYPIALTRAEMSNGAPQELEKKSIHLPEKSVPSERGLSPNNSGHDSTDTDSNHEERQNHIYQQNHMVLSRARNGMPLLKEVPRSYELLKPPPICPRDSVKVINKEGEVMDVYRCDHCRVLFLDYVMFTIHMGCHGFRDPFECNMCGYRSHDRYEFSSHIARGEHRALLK
T6 sequence (Q96SW2 whole entry): as the sequence (Q96SW2 whole entry) above
T6 sequence (Q16531 whole entry partner): as the sequence (Q16531 whole entry partner) above
T1 sequence (P48729 whole entry): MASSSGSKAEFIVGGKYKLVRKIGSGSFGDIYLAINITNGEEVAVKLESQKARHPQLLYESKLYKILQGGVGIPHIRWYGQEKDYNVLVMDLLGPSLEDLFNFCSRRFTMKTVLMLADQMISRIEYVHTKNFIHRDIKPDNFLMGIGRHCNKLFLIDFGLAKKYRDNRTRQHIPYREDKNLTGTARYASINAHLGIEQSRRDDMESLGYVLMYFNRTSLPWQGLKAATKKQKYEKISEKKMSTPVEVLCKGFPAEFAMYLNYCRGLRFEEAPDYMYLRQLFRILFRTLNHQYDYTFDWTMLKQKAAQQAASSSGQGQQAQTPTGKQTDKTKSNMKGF
T1 sequence (Q96SW2 whole entry): as the sequence (Q96SW2 whole entry) above
T1 sequence (Q16531 whole entry partner): as the sequence (Q16531 whole entry partner) above
T3 sequence (Q13422 whole entry): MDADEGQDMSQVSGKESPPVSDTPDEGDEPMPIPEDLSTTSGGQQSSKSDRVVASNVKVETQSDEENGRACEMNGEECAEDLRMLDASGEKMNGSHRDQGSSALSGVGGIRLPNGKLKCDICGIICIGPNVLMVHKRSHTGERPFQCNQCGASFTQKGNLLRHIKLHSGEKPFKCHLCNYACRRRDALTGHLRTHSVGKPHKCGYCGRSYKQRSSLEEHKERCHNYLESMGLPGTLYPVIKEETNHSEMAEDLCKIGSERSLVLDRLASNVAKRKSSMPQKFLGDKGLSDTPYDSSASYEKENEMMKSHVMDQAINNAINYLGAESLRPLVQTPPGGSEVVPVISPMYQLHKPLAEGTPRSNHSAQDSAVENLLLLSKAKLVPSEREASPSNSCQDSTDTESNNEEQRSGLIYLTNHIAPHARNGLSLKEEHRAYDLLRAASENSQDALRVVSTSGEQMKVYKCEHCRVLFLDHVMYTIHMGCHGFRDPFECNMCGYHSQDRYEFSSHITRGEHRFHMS
T3 sequence (Q96SW2 whole entry): as the sequence (Q96SW2 whole entry) above
T3 sequence (Q16531 whole entry partner): as the sequence (Q16531 whole entry partner) above

For the compound `O=C1CCN(N2Cc3cc(CN4CCN(c5c(Cl)cncc5Br)CC4)ccc3C2=O)C(=O)N1` [GT-07170, 1-(5-((4-(3-bromo-5-chloropyridin-4-yl)piperazin-1-yl)methyl)-1-oxoisoindolin-2-yl)dihydropyrimidine-2,4(1H,3H)-dione], the “CK1α substrate protein remaining %” value on CK1α was “B (80%< substrate protein remaining % ≤100%)”. For the same compound, the “IKZF2 substrate protein remaining %” value on IKZF2 is reported as “B (80%< substrate protein remaining % ≤100%)”. The “IKZF1 substrate protein remaining %” value at IKZF1 is given as “A (0% ≤ substrate protein remaining % ≤80%)”. The “WEE1 substrate protein remaining %” value on WEE1 is given as “A (0% ≤ substrate protein remaining % ≤80%)”. The “GSPT1 substrate protein remaining %” value on GSPT1 is “B (80%< substrate protein remaining % ≤100%)”. For the same compound, the “IKZF3 substrate protein remaining %” value on IKZF3 is listed as “B (80%< substrate protein remaining % ≤100%)”.

For `O=C1CCN(N2Cc3cc(CN4CCN(c5c(F)cncc5Cl)CC4)ccc3C2=O)C(=O)N1` [GT-07171, 1-(5-((4-(3-chloro-5-fluoropyridin-4-yl)piperazin-1-yl)methyl)-1-oxoisoindolin-2-yl)dihydropyrimidine-2,4(1H,3H)-dione], the “CK1α substrate protein remaining %” value at CK1α is recorded as “B (80%< substrate protein remaining % ≤100%)”. Also, the “IKZF2 substrate protein remaining %” value at IKZF2 is reported as “B (80%< substrate protein remaining % ≤100%)”. The “IKZF1 substrate protein remaining %” value on IKZF1 is “B (80%< substrate protein remaining % ≤100%)”. Moreover, the “WEE1 substrate protein remaining %” value on WEE1 is given as “A (0% ≤ substrate protein remaining % ≤80%)”. Moreover, at GSPT1, the “GSPT1 substrate protein remaining %” value is on record as “B (80%< substrate protein remaining % ≤100%)”. For the same compound, at IKZF3, the “IKZF3 substrate protein remaining %” value was “B (80%< substrate protein remaining % ≤100%)”.

Take `O=C1CCN(N2C(=O)c3ccc(CN4CCN(c5ncccn5)CC4)cc3C2=O)C(=O)N1` [GT-07285, 2-(2,4-dioxotetrahydropyrimidin-1(2H)-yl)-5-((4-(pyrimidin-2-yl)piperazin-1-yl)methyl)isoindoline-1,3-dione]: the “CK1α substrate protein remaining %” value on CK1α is reported as “B (80%< substrate protein remaining % ≤100%)”. Also, the “IKZF2 substrate protein remaining %” value at IKZF2 is recorded as “B (80%< substrate protein remaining % ≤100%)”. At IKZF1, the “IKZF1 substrate protein remaining %” value was “A (0% ≤ substrate protein remaining % ≤80%)”. The “WEE1 substrate protein remaining %” value at WEE1 is on record as “A (0% ≤ substrate protein remaining % ≤80%)”. In addition, the “GSPT1 substrate protein remaining %” value on GSPT1 is reported as “B (80%< substrate protein remaining % ≤100%)”. For the same compound, the “IKZF3 substrate protein remaining %” value at IKZF3 was “B (80%< substrate protein remaining % ≤100%)”.

As for `O=C1CCN(N2C(=O)c3ccc(CN4CCN(c5nccc(Cl)c5Br)CC4)cc3C2=O)C(=O)N1` [GT-07291, 5-((4-(3-bromo-4-chloropyridin-2-yl)piperazin-1-yl)methyl)-2-(2,4-dioxotetrahydropyrimidin-1(2H)-yl)isoindoline-1,3-dione], on CK1α, the “CK1α substrate protein remaining %” value was “B (80%< substrate protein remaining % ≤100%)”. The “IKZF2 substrate protein remaining %” value at IKZF2 is listed as “B (80%< substrate protein remaining % ≤100%)”. Also, on IKZF1, the “IKZF1 substrate protein remaining %” value is listed as “B (80%< substrate protein remaining % ≤100%)”. For the same compound, the “WEE1 substrate protein remaining %” value on WEE1 is “A (0% ≤ substrate protein remaining % ≤80%)”. Besides, the “GSPT1 substrate protein remaining %” value at GSPT1 is “A (0% ≤ substrate protein remaining % ≤80%)”. In addition, the “IKZF3 substrate protein remaining %” value on IKZF3 is “B (80%< substrate protein remaining % ≤100%)”.

As for `O=C1CCN(N2C(=O)c3ccc(CN4CCCN(C(c5ccccc5)c5ccccc5)CC4)cc3C2=O)C(=O)N1` [GT-07295, 5-((4-benzhydryl-1,4-diazepan-1-yl)methyl)-2-(2,4-dioxotetrahydropyrimidin-1(2H)-yl)isoindoline-1,3-dione], at CK1α, the “CK1α substrate protein remaining %” value is on record as “B (80%< substrate protein remaining % ≤100%)”. The “IKZF2 substrate protein remaining %” value at IKZF2 is recorded as “B (80%< substrate protein remaining % ≤100%)”. The “IKZF1 substrate protein remaining %” value at IKZF1 was “B (80%< substrate protein remaining % ≤100%)”. The “WEE1 substrate protein remaining %” value at WEE1 is “B (80%< substrate protein remaining % ≤100%)”. Also, the “GSPT1 substrate protein remaining %” value at GSPT1 is “A (0% ≤ substrate protein remaining % ≤80%)”. The “IKZF3 substrate protein remaining %” value at IKZF3 is reported as “B (80%< substrate protein remaining % ≤100%)”.

Consider `CC1(C)CCC(CN2CCN(Cc3ccc4c(c3)CN(N3CCC(=O)NC3=O)C4=O)C(C(F)(F)F)C2)=C(c2ccc(Cl)cc2)C1` (stereo not drawn) [GT-07296, 1-(5-((4-((4′-chloro-5,5-dimethyl-3,4,5,6-tetrahydro-[1,1′-biphenyl]-2-yl)methyl)-2-(trifluoromethyl)piperazin-1-yl)methyl)-1-oxoisoindolin-2-yl)dihydropyrimidine-2,4(1H,3H)-dione], for which the “CK1α substrate protein remaining %” value at CK1α is listed as “A (0% ≤ substrate protein remaining % ≤80%)”. Besides, on IKZF2, the “IKZF2 substrate protein remaining %” value is “B (80%< substrate protein remaining % ≤100%)”. In addition, the “IKZF1 substrate protein remaining %” value at IKZF1 was “A (0% ≤ substrate protein remaining % ≤80%)”. For the same compound, the “WEE1 substrate protein remaining %” value at WEE1 was “A (0% ≤ substrate protein remaining % ≤80%)”. Moreover, on GSPT1, the “GSPT1 substrate protein remaining %” value is “A (0% ≤ substrate protein remaining % ≤80%)”. Further, the “IKZF3 substrate protein remaining %” value on IKZF3 is “B (80%< substrate protein remaining % ≤100%)”.

Regarding `O=C1CCN(N2Cc3cc(CN4CCN(CC5=C(c6ccc(F)cc6)CCCC5)CC4)ccc3C2=O)C(=O)N1` [GT-07297, 1-(5-((4-((4′-fluoro-3,4,5,6-tetrahydro-[1,1′-biphenyl]-2-yl)methyl)piperazin-1-yl)methyl)-1-oxoisoindolin-2-yl)dihydropyrimidine-2,4(1H,3H)-dione], the “CK1α substrate protein remaining %” value on CK1α is on record as “A (0% ≤ substrate protein remaining % ≤80%)”. Besides, the “IKZF2 substrate protein remaining %” value at IKZF2 is on record as “A (0% ≤ substrate protein remaining % ≤80%)”. On IKZF1, the “IKZF1 substrate protein remaining %” value is recorded as “B (80%< substrate protein remaining % ≤100%)”. For the same compound, on WEE1, the “WEE1 substrate protein remaining %” value is given as “A (0% ≤ substrate protein remaining % ≤80%)”. In addition, the “GSPT1 substrate protein remaining %” value at GSPT1 is listed as “A (0% ≤ substrate protein remaining % ≤80%)”. Further, the “IKZF3 substrate protein remaining %” value on IKZF3 was “A (0% ≤ substrate protein remaining % ≤80%)”.

`CC1(C)CCC(CN2CC3CCC2CN3Cc2ccc3c(c2)C(=O)N(N2CCC(=O)NC2=O)C3=O)=C(c2ccc(Cl)cc2)C1` (stereo not drawn) [GT-07300, 5-((5-((4′-chloro-5,5-dimethyl-3,4,5,6-tetrahydro-[1,1′-biphenyl]-2-yl)methyl)-2,5-diazabicyclo[2.2.2]octan-2-yl)methyl)-2-(2,4-dioxotetrahydropyrimidin-1(2H)-yl)isoindoline-1,3-dione]: the “CK1α substrate protein remaining %” value at CK1α is “B (80%< substrate protein remaining % ≤100%)”. The “IKZF2 substrate protein remaining %” value on IKZF2 is given as “B (80%< substrate protein remaining % ≤100%)”. The “IKZF1 substrate protein remaining %” value at IKZF1 is listed as “B (80%< substrate protein remaining % ≤100%)”. Also, the “WEE1 substrate protein remaining %” value at WEE1 is “A (0% ≤ substrate protein remaining % ≤80%)”. For the same compound, the “GSPT1 substrate protein remaining %” value at GSPT1 is recorded as “B (80%< substrate protein remaining % ≤100%)”. For the same compound, the “IKZF3 substrate protein remaining %” value on IKZF3 is “B (80%< substrate protein remaining % ≤100%)”.

As to `CC1(C)CCC(CN2CCN(Cc3ccc4c(c3)C(=O)N(N3CCC(=O)NC3=O)C4=O)C(C(F)(F)F)C2)=C(c2ccc(Cl)cc2)C1` (stereo not drawn) [GT-07301, 5-((4-((4′-chloro-5,5-dimethyl-3,4,5,6-tetrahydro-[1,1′-biphenyl]-2-yl)methyl)-2-(trifluoromethyl)piperazin-1-yl)methyl)-2-(2,4-dioxotetrahydropyrimidin-1(2H)-yl)isoindoline-1,3-dione], the “CK1α substrate protein remaining %” value on CK1α was “B (80%< substrate protein remaining % ≤100%)”. Moreover, the “IKZF2 substrate protein remaining %” value on IKZF2 is on record as “B (80%< substrate protein remaining % ≤100%)”. The “IKZF1 substrate protein remaining %” value at IKZF1 is “B (80%< substrate protein remaining % ≤100%)”. Further, the “WEE1 substrate protein remaining %” value on WEE1 is given as “B (80%< substrate protein remaining % ≤100%)”. Besides, the “GSPT1 substrate protein remaining %” value on GSPT1 is “A (0% ≤ substrate protein remaining % ≤80%)”. The “IKZF3 substrate protein remaining %” value on IKZF3 is listed as “B (80%< substrate protein remaining % ≤100%)”.

Consider `O=C1CCN(N2C(=O)c3ccc(CN4CCN(CC5=C(c6ccc(F)cc6)CCCC5)CC4)cc3C2=O)C(=O)N1` [GT-07302, 2-(2,4-dioxotetrahydropyrimidin-1(2H)-yl)-5-((4-((4′-fluoro-3,4,5,6-tetrahydro-[1,1′-biphenyl]-2-yl)methyl)piperazin-1-yl)methyl)isoindoline-1,3-dione], for which the “CK1α substrate protein remaining %” value on CK1α was “B (80%< substrate protein remaining % ≤100%)”. At IKZF2, the “IKZF2 substrate protein remaining %” value is “B (80%< substrate protein remaining % ≤100%)”. Also, the “IKZF1 substrate protein remaining %” value on IKZF1 is recorded as “B (80%< substrate protein remaining % ≤100%)”. For the same compound, the “WEE1 substrate protein remaining %” value on WEE1 is “A (0% ≤ substrate protein remaining % ≤80%)”. On GSPT1, the “GSPT1 substrate protein remaining %” value was “B (80%< substrate protein remaining % ≤100%)”. Besides, at IKZF3, the “IKZF3 substrate protein remaining %” value is reported as “B (80%< substrate protein remaining % ≤100%)”.

Turning to `CC1(C)CC(c2ccc(Cl)cc2)=C(CN2CCN(Cc3ccc4c(c3)C(=O)N(N3CCC(=O)NC3=O)C4=O)CC2)CO1` [GT-07304, 5-((4-((4-(4-chlorophenyl)-6,6-dimethyl-5,6-dihydro-2H-pyran-3-yl)methyl)piperazin-1-yl)methyl)-2-(2,4-dioxotetrahydropyrimidin-1(2H)-yl)isoindoline-1,3-dione], the “CK1α substrate protein remaining %” value at CK1α is “A (0% ≤ substrate protein remaining % ≤80%)”. The “IKZF2 substrate protein remaining %” value at IKZF2 was “B (80%< substrate protein remaining % ≤100%)”. The “IKZF1 substrate protein remaining %” value on IKZF1 is “B (80%< substrate protein remaining % ≤100%)”. Moreover, at WEE1, the “WEE1 substrate protein remaining %” value was “B (80%< substrate protein remaining % ≤100%)”. Besides, on GSPT1, the “GSPT1 substrate protein remaining %” value is on record as “A (0% ≤ substrate protein remaining % ≤80%)”. For the same compound, on IKZF3, the “IKZF3 substrate protein remaining %” value was “B (80%< substrate protein remaining % ≤100%)”.

The values are drawn from patent US20260356819A1, “OXOISOINDOLINYL-SUBSTITUTED […] DERIVATIVE AND USE THEREOF” (GLUETACS THERAPEUTICS (SHANGHAI) CO., LTD., priority 2023, published 2026).
